The results in this text go back to US8691990B2, “6-heterocyclic imidazo[1,2-α]pyridine-2-carboxamide derivatives, preparation and therapeutic use thereof” (Sanofi, priority 2008, dated 2014).

Where a name gives a salt, the structure may show the parent alone.

The assay addresses T1, murine Nurr 1 receptor (Mus musculus, UniProt Q06219).
T1 construct: a cell line (N2A) endogenously expressing the murine Nurr 1 receptor; host or cells: Neuro-2A (N2A) mouse neuroblastoma cells stably transfected with 8NBRE-luciferase
The assay is described as follows: In vitro activity on N2A cells (NBRE-luciferase reporter gene). It is filed as cell-based. The conditions noted are these: N2A cell line endogenously expressing Nurr 1, stably transfected with 8NBRE-luciferase; products incubated 24 hours. As for the experimental part:
Evaluation of the In Vitro Activity on N2A Cells
The activity of the compounds according to the invention was evaluated on a cell line (N2A) endogenously expressing the murine Nurr 1 receptor and stably transfected with the NOT binding response element (NBRE) coupled to the luciferase reporter gene. The EC50 values are between 0.01 and 1000 nM. The tests were performed according to the procedure described hereinbelow.
The cell line Neuro-2A is obtained from a standard commercial source (ATCC). The clone Neuro-2A was obtained from a spontaneous tumour originating from a strain of albino mice A by R. J Klebe et al. This line Neuro-2A is then stably transfected with 8NBRE-luciferase. The N2A-8NBRE cells are cultured to the point of confluence in 75 cm^2 culture flasks containing DMEM supplemented with 10% foetal calf serum, 4.5 g/L of glucose and 0.4 mg/ml of geneticin. After culturing for one week, the cells are recovered with 0.25% trypsin for 30 seconds and then resuspended in DMEM without phenol red, containing 4.5 g/L of glucose and 10% Hyclone defatted serum, and placed in white, transparent-based 96-well plates. The cells are deposited at a rate of 60 000 per well in 75 μL for 24 hours before adding the products. The products are applied in 25 μL and incubated for a further 24 hours. On the day of measurement, an equivalent volume (100 μL) of Steadylite is added to each well, and the wells are then left for 30 minutes to obtain complete lysis of the cells and maximum production of the signal. The plates are then measured in a microplate luminescence counter, after having been sealed with an adhesive film. The products are prepared in the form of a 10^−2 M stock solution, and then diluted in 100% of DMSO. Each concentration of product is prediluted in culture medium before incubation with the cells thus containing 0.625% final of DMSO.

T1 sequence (Q06219 whole entry): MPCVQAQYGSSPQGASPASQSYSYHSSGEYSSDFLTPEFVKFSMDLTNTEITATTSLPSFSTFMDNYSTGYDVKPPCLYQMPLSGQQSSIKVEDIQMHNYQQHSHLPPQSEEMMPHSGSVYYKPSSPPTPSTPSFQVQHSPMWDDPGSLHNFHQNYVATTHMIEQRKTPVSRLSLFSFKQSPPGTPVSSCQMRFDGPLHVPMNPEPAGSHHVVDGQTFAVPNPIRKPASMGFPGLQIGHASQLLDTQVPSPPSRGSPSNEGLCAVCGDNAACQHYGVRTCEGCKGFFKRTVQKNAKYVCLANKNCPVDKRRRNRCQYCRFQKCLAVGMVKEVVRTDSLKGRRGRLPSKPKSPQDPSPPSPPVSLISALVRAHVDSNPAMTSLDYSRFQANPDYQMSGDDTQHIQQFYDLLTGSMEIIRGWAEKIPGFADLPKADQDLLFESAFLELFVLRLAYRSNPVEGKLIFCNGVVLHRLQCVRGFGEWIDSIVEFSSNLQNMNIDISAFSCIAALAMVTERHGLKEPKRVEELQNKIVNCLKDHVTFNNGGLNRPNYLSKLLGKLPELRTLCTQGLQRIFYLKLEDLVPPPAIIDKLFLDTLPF

The term EC50 denotes the concentration that produces a half-maximal response. A lower EC50 goes with a more potent agent. `O=C(Nc1ccccc1)c1cn2cc(-c3ccccn3)ccc2n1` [Compound 3, N-Phenyl-6-(pyrid-2-yl)imidazo[1,2-a]pyridine-2-carboxamide] yielded an EC50 of 0.9 nM.
`O=C(Nc1ccccc1)c1cn2cc(C3=NCCN3)ccc2n1` [Compound 17, 6-(4,5-Dihydro-1H-imidazol-2-yl)-N-phenylimidazo[1,2-a]pyridine-2-carboxamide hydrochlorides (1:1) and (1:2)] gave an EC50 of 26.8 nM.
As to `O=C(Nc1cc(F)cc(F)c1)c1cn2cc(-c3ccoc3)ccc2n1` [Compound 24, N-(3,5-Difluorophenyl)-6-(furan-3-yl)imidazo[1,2-a]pyridine-2-carboxamide], the midpoint of the response, the EC50, lay at 0.9 nM.
With `O=C(Nc1ccccc1)c1cn2cc(-c3cn[nH]c3)ccc2n1` [Compound 29, N-Phenyl-6-(1H-pyrazol-4-yl)imidazo[1,2-a]pyridine-2-carboxamide] the figure was 1.1 nM.
With `O=C(Nc1cccc(F)c1F)c1cn2cc(-c3ccccn3)ccc2n1` [Compound 45, N-(2,3-Difluorophenyl)-6-(pyrid-2-yl)imidazo[1,2-a]pyridine-2-carboxamide] the figure was 1.2 nM; with `O=C(Nc1cccc(F)c1)c1cn2cc(-c3nc[nH]n3)ccc2n1` [Compound 53, N-(3-Fluorophenyl)-6-(1H-1,2,4-triazol-3-yl)imidazo[1,2-a]pyridine-2-carboxamide], 0.4 nM.
